Data taken from patent publication US9409905B2, “Antibacterial compounds and methods for use” (PTC THERAPEUTICS, INC., priority 2011, dated 2016).
≈ marks a conversion by molar mass, not a printed value.

Columns and labels:
[1] = tested on: E. coli 25922; test: Antibacterial activity, microbroth dilution MIC (Table 1); assay type: cell-based, Escherichia coli; conditions: Escherichia coli; microbroth dilution; control Gram-negative E. coli 25922 strain; read-out: MIC, 25922
Procedure, shortened: (§1)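 In a microbroth dilution test, the minimum inhibitory concentration was defined as the lowest compound level preventing growth seen by eye, and was given in μg/mL.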

[2] = tested on: Staphylococcus aureus (S. aureus) 29213; test: as above; assay type: cell-based; conditions: microbroth dilution, Gram-positive S. aureus 29213, read-out: MIC, 29213
Procedure, shortened: as §1

[3] = tested on: Escherichia coli (E. coli) BAS849; test: as above; assay type: cell-based; conditions: microbroth dilution, super sensitive Gram-negative E. coli BAS849, read-out: MIC, BAS849
Procedure, shortened: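 Microbroth dilution was used. MIC, in μg/mL, is the lowest drug concentration preventing macroscopically visible growth under the test conditions.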

[4] = tested on: E. coli ELZ4251; test: Antibacterial activity, MIC, multi-drug resistant clinical isolate (Table 3); assay type: cell-based; conditions: Escherichia coli
Procedure, shortened: (§2)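 Compounds were serially diluted in broth microdilution format and growth was scored visually; the MIC is the lowest concentration at which no macroscopically visible growth occurred, expressed in μg/mL.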

[5] = tested on: E. coli ELZ4000; test: as above; assay type: cell-based; conditions: Escherichia coli, ELZ4000, read-out: MIC ELZ4000
Procedure, shortened: as §2

[6] = tested on: Pseudomonas aeruginosa (P. aeruginosa) 27853; test: Antibacterial activity, MIC (Table 5); assay type: cell-based; conditions: P. aeruginosa 27853, read-out: MIC, 27853
Procedure, shortened: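 Values are MICs in μg/mL, read as the lowest concentration at which no growth is visible by eye. They were determined by a microbroth dilution method.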

[7] = tested on: E. coli LZ3111; test: Antibacterial activity, MIC, quinolone resistant strain (Table 2); assay type: cell-based; conditions: Escherichia coli, LZ3111, read-out: MIC LZ3111
Procedure, shortened: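 MIC values (μg/mL) came from a microbroth dilution assay, scored as the lowest drug concentration at which no growth was visible by eye.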

[8] = tested on: Neisseria meningitidis (N. meningitidis) 13090; test: Antibacterial activity, MIC (Table 8); assay type: cell-based
Excerpt: (§3) The antibacterial activity from a microbroth dilution method may be presented as the minimum inhibitory concentration (MIC in μg/mL). The MIC value is the lowest concentration of drug which prevents macroscopically visible growth under test conditions.
(§4) Antibacterial activity of test compounds against the Gram-negative bacteria Haemophilus influenzae (H. influenzae) 49247 is shown in Table 6, Moraxella catarrhalis (M. catarrhalis) 25238 is shown in Table 7 and Neisseria meningitidis (N. meningitidis) 13090 is shown in Table 8.

[9] = tested on: Haemophilus influenzae (H. influenzae) 49247; test: Antibacterial activity, MIC (Table 6); assay type: cell-based
Excerpt: as §3, §4

[10] = tested on: Acinetobacter baumannii (A. baumannii) BAA747; test: Antibacterial activity, MIC (Table 4); assay type: cell-based; conditions: A. baumannii BAA747, read-out: MIC, BAA747
Procedure, shortened: (§5)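 Activity was measured by microbroth dilution. The MIC, in μg/mL, is the lowest drug concentration that prevents macroscopically visible growth under the test conditions. The resistant strains are multi-drug resistant clinical isolates.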

[11] = tested on: Klebsiella pneumoniae (K. pneumoniae) 35657; test: Antibacterial activity, MIC (Table 4); assay type: cell-based; conditions: K. pneumoniae 35657, read-out: MIC, 35657
Procedure, shortened: as §5

[12] = tested on: K. pneumoniae MXX1232; test: Antibacterial activity, MIC, resistant strain (Table 4); assay type: cell-based; conditions: Klebsiella pneumoniae, MXX1232; resistant K. pneumoniae MMX1232, multi-drug resistant clinical isolate; read-out: MIC, MMX1232
Procedure, shortened: as §5

[13] = tested on: A. baumannii MXX2240; test: as above; assay type: cell-based; conditions: Acinetobacter baumannii, MXX2240; resistant A. baumannii MMX2240, multi-drug resistant clinical isolate; read-out: MIC, MMX2240
Procedure, shortened: as §5

SMILES	MIC [1]	MIC [2]	MIC [3]	MIC [4]	MIC [5]	MIC [6]	MIC [7]	MIC [8]	MIC [9]	MIC [10]	MIC [11]	MIC [12]	MIC [13]
CCc1cc(C(=O)O)c(=O)[nH]c1-c1ccc2c(c1)CCCN2C [Cpd 1, 5-ethyl-6-(1-methyl-1,2,3,4-tetrahydroquinolin-6-yl)-2-oxo-1,2-dihydropyridine-3-carboxylic acid]	1 to 3.5 µg/mL (≈ 3.2 to 11.2 µM)	12.5 to 150 µg/mL (≈ 40 to 480 µM)	< 1 µg/mL	12.5 to 150 µg/mL (≈ 40 to 480 µM)	12.5 to 150 µg/mL (≈ 40 to 480 µM)	12.5 to 150 µg/mL (≈ 40 to 480 µM)	12.5 to 150 µg/mL (≈ 40 to 480 µM)	< 1 µg/mL	< 1 µg/mL				
CCc1c(-c2ccc3c(c2)CCCN3C)[nH]c(=O)c(C(=O)O)c1O [Cpd 2, 5-ethyl-4-hydroxy-6-(1-methyl-1,2,3,4-tetrahydroquinolin-6-yl)-2-oxo-1,2-dihydropyridine-3-carboxylic acid]	12.5 to 150 µg/mL (≈ 38.1 to 457 µM)	3.5 to 12.5 µg/mL (≈ 10.7 to 38.1 µM)	< 1 µg/mL					< 1 µg/mL	< 1 µg/mL				
CCc1cc(C(=O)O)c(=O)[nH]c1-c1ccc2c(c1)OCCN2C [Cpd 3, 5-ethyl-6-(4-methyl-3,4-dihydro-2H-benzo[b][1,4]oxazin-7-yl)-2-oxo-1,2-dihydropyridine-3-carboxylic acid]	1 to 3.5 µg/mL (≈ 3.18 to 11.1 µM)	12.5 to 150 µg/mL (≈ 39.8 to 477 µM)	< 1 µg/mL	12.5 to 150 µg/mL (≈ 39.8 to 477 µM)	12.5 to 150 µg/mL (≈ 39.8 to 477 µM)	12.5 to 150 µg/mL (≈ 39.8 to 477 µM)	12.5 to 150 µg/mL (≈ 39.8 to 477 µM)		< 1 µg/mL	3.5 to 12.5 µg/mL (≈ 11.1 to 39.8 µM)	3.5 to 12.5 µg/mL (≈ 11.1 to 39.8 µM)	12.5 to 150 µg/mL (≈ 39.8 to 477 µM)	12.5 to 150 µg/mL (≈ 39.8 to 477 µM)
CCc1c(-c2ccc3c(c2)OCCN3C)[nH]c(=O)c(C(=O)O)c1O [Cpd 4, 5-ethyl-4-hydroxy-6-(4-methyl-3,4-dihydro-2H-benzo[b][1,4]oxazin-7-yl)-2-oxo-1,2-dihydropyridine-3-carboxylic acid]	3.5 to 12.5 µg/mL (≈ 10.6 to 37.8 µM)	3.5 to 12.5 µg/mL (≈ 10.6 to 37.8 µM)	< 1 µg/mL	3.5 to 12.5 µg/mL (≈ 10.6 to 37.8 µM)	3.5 to 12.5 µg/mL (≈ 10.6 to 37.8 µM)	12.5 to 150 µg/mL (≈ 37.8 to 454 µM)	3.5 to 12.5 µg/mL (≈ 10.6 to 37.8 µM)		< 1 µg/mL	1 to 3.5 µg/mL (≈ 3.03 to 10.6 µM)	3.5 to 12.5 µg/mL (≈ 10.6 to 37.8 µM)	12.5 to 150 µg/mL (≈ 37.8 to 454 µM)	1 to 3.5 µg/mL (≈ 3.03 to 10.6 µM)
CCc1cc(C(=O)O)c(=O)[nH]c1-c1ccc2c(c1)CCN2C [Cpd 5, 5-ethyl-6-(1-methylindolin-5-yl)-2-oxo-1,2-dihydropyridine-3-carboxylic acid]	3.5 to 12.5 µg/mL (≈ 11.7 to 41.9 µM)	12.5 to 150 µg/mL (≈ 41.9 to 503 µM)	< 1 µg/mL	12.5 to 150 µg/mL (≈ 41.9 to 503 µM)	12.5 to 150 µg/mL (≈ 41.9 to 503 µM)	12.5 to 150 µg/mL (≈ 41.9 to 503 µM)	12.5 to 150 µg/mL (≈ 41.9 to 503 µM)	< 1 µg/mL	< 1 µg/mL	1 to 3.5 µg/mL (≈ 3.35 to 11.7 µM)	3.5 to 12.5 µg/mL (≈ 11.7 to 41.9 µM)	12.5 to 150 µg/mL (≈ 41.9 to 503 µM)	12.5 to 150 µg/mL (≈ 41.9 to 503 µM)
CCc1cc(C(=O)O)c(=O)[nH]c1-c1ccc2c(ccn2CC)c1 [Cpd 9, 5-ethyl-6-(1-ethyl-1H-indol-5-yl)-2-oxo-1,2-dihydropyridine-3-carboxylic acid]	1 to 3.5 µg/mL (≈ 3.22 to 11.3 µM)	12.5 to 150 µg/mL (≈ 40.3 to 483 µM)	< 1 µg/mL	12.5 to 150 µg/mL (≈ 40.3 to 483 µM)	12.5 to 150 µg/mL (≈ 40.3 to 483 µM)		12.5 to 150 µg/mL (≈ 40.3 to 483 µM)		< 1 µg/mL				
CCc1c(-c2ccc3c(ccn3CC)c2)[nH]c(=O)c(C(=O)O)c1O [Cpd 10, 5-ethyl-6-(1-ethyl-1H-indol-5-yl)-4-hydroxy-2-oxo-1,2-dihydropyridine-3-carboxylic acid]	3.5 to 12.5 µg/mL (≈ 10.7 to 38.3 µM)	1 to 3.5 µg/mL (≈ 3.06 to 10.7 µM)	< 1 µg/mL	12.5 to 150 µg/mL (≈ 38.3 to 460 µM)	12.5 to 150 µg/mL (≈ 38.3 to 460 µM)		12.5 to 150 µg/mL (≈ 38.3 to 460 µM)	< 1 µg/mL	< 1 µg/mL				
CCc1c(-c2ccc3c(c2)oc(=O)n3C)[nH]c(=O)c(C(=O)O)c1O [Cpd 11, 5-ethyl-4-hydroxy-6-(3-methyl-2-oxo-2,3-dihydrobenzo[d]oxazol-6-yl)-2-oxo-1,2-dihydropyridine-3-carboxylic acid]	1 to 3.5 µg/mL (≈ 3.03 to 10.6 µM)	12.5 to 150 µg/mL (≈ 37.8 to 454 µM)	< 1 µg/mL	12.5 to 150 µg/mL (≈ 37.8 to 454 µM)	12.5 to 150 µg/mL (≈ 37.8 to 454 µM)		12.5 to 150 µg/mL (≈ 37.8 to 454 µM)		< 1 µg/mL				
CC(C)c1cc(C(=O)O)c(=O)[nH]c1-c1ccc2c(ccn2C)c1 [Cpd 33, 5-isopropyl-6-(1-methyl-1H-indol-5-yl)-2-oxo-1,2-dihydropyridine-3-carboxylic acid]	3.5 to 12.5 µg/mL (≈ 11.3 to 40.3 µM)	12.5 to 150 µg/mL (≈ 40.3 to 483 µM)	< 1 µg/mL	12.5 to 150 µg/mL (≈ 40.3 to 483 µM)	12.5 to 150 µg/mL (≈ 40.3 to 483 µM)		12.5 to 150 µg/mL (≈ 40.3 to 483 µM)	< 1 µg/mL	< 1 µg/mL				
Cn1ccc2cc(-c3[nH]c(=O)c(C(=O)O)cc3C3CC3)ccc21 [Cpd 35, 5-cyclopropyl-6-(1-methyl-1H-indol-5-yl)-2-oxo-1,2-dihydropyridine-3-carboxylic acid]	1 to 3.5 µg/mL (≈ 3.24 to 11.4 µM)	12.5 to 150 µg/mL (≈ 40.5 to 486 µM)	< 1 µg/mL	12.5 to 150 µg/mL (≈ 40.5 to 486 µM)	12.5 to 150 µg/mL (≈ 40.5 to 486 µM)		12.5 to 150 µg/mL (≈ 40.5 to 486 µM)	< 1 µg/mL	< 1 µg/mL				
CCc1cc(C(=O)O)c(=O)[nH]c1-c1ccc2c(c1)cc(C)n2C [Cpd 37, 6-(1,2-dimethyl-1H-indol-5-yl)-5-ethyl-2-oxo-1,2-dihydropyridine-3-carboxylic acid]	< 1 µg/mL	1 to 3.5 µg/mL (≈ 3.22 to 11.3 µM)	< 1 µg/mL	12.5 to 150 µg/mL (≈ 40.3 to 483 µM)	12.5 to 150 µg/mL (≈ 40.3 to 483 µM)		12.5 to 150 µg/mL (≈ 40.3 to 483 µM)	< 1 µg/mL	< 1 µg/mL				
CCc1c(-c2ccc3c(c2)cc(C)n3C)[nH]c(=O)c(C(=O)O)c1O [Cpd 38, 6-(1,2-dimethyl-1H-indol-5-yl)-5-ethyl-4-hydroxy-2-oxo-1,2-dihydropyridine-3-carboxylic acid]	1 to 3.5 µg/mL (≈ 3.06 to 10.7 µM)	1 to 3.5 µg/mL (≈ 3.06 to 10.7 µM)	< 1 µg/mL	12.5 to 150 µg/mL (≈ 38.3 to 460 µM)	12.5 to 150 µg/mL (≈ 38.3 to 460 µM)		12.5 to 150 µg/mL (≈ 38.3 to 460 µM)	< 1 µg/mL	< 1 µg/mL				
CCc1cc(C(=O)O)c(=O)[nH]c1-c1ccc2c(c1)cc(CO)n2C [Cpd 39, 5-ethyl-6-(2-(hydroxymethyl)-1-methyl-1H-indol-5-yl)-2-oxo-1,2-dihydropyridine-3-carboxylic acid]	1 to 3.5 µg/mL (≈ 3.06 to 10.7 µM)	3.5 to 12.5 µg/mL (≈ 10.7 to 38.3 µM)	< 1 µg/mL	12.5 to 150 µg/mL (≈ 38.3 to 460 µM)	12.5 to 150 µg/mL (≈ 38.3 to 460 µM)		12.5 to 150 µg/mL (≈ 38.3 to 460 µM)	< 1 µg/mL	< 1 µg/mL				
CCc1c(-c2ccc3c(c2)cc(CO)n3C)[nH]c(=O)c(C(=O)O)c1O [Cpd 40, 5-ethyl-4-hydroxy-6-(2-(hydroxymethyl)-1-methyl-1H-indol-5-yl)-2-oxo-1,2-dihydropyridine-3-carboxylic acid]	1 to 3.5 µg/mL (≈ 2.92 to 10.2 µM)	1 to 3.5 µg/mL (≈ 2.92 to 10.2 µM)	< 1 µg/mL	3.5 to 12.5 µg/mL (≈ 10.2 to 36.5 µM)	12.5 to 150 µg/mL (≈ 36.5 to 438 µM)	3.5 to 12.5 µg/mL (≈ 10.2 to 36.5 µM)	3.5 to 12.5 µg/mL (≈ 10.2 to 36.5 µM)	< 1 µg/mL	< 1 µg/mL	1 to 3.5 µg/mL (≈ 2.92 to 10.2 µM)		12.5 to 150 µg/mL (≈ 36.5 to 438 µM)	3.5 to 12.5 µg/mL (≈ 10.2 to 36.5 µM)
